From PubChem BioAssay AID1963967 (Molecular Pharmacology Branch, DTP, NCI, 2024)

Test system: 855422-203-R-J1-PDC spheroids with HUVEC/MSC, viability
Assay: Anticancer human tumor 855422-203-R-J1-PDC patient-derived bladder carcinoma cell line growth inhibition [PI3K]
Conditions: for viability, T/C: stronger effect = lower value
In short: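 Three cell types, namely tumor cells, endothelial cells and mesenchymal stem cells, formed each spheroid. Combinations with four PI3K inhibitors were screened at clinically achievable concentrations decreasing by half-log, and spheroid viability was recorded.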

[1] = curve of first compound, second compound 0.00316 µM
[2] = curve of first compound, second compound 0.01 µM
[3] = curve of first compound, second compound 0.0316 µM
[4] = curve of first compound, second compound 0.1 µM
[5] = curve of first compound, second compound 0.316 µM
[6] = curve of first compound, second compound 1 µM
[7] = second compound 0.00316 µM, first compound 0.0316 µM
[8] = second compound 0.00316 µM, first compound 0.1 µM
[9] = second compound 0.00316 µM, first compound 0.316 µM
[10] = second compound 0.00316 µM, first compound 1 µM
[11] = second compound 0.00316 µM, first compound 3.16 µM
[12] = second compound 0.00316 µM, first compound 10 µM
[13] = second compound 0.01 µM, first compound 0.0316 µM
[14] = second compound 0.01 µM, first compound 0.1 µM
[15] = second compound 0.01 µM, first compound 0.316 µM
[16] = second compound 0.01 µM, first compound 1 µM
[17] = second compound 0.01 µM, first compound 3.16 µM
[18] = second compound 0.01 µM, first compound 10 µM
[19] = second compound 0.0316 µM, first compound 0.0316 µM
[20] = second compound 0.0316 µM, first compound 0.1 µM
[21] = second compound 0.0316 µM, first compound 0.316 µM
[22] = second compound 0.0316 µM, first compound 1 µM
[23] = second compound 0.0316 µM, first compound 3.16 µM
[24] = second compound 0.0316 µM, first compound 10 µM
[25] = second compound 0.1 µM, first compound 0.0316 µM
[26] = second compound 0.1 µM, first compound 0.1 µM
[27] = second compound 0.1 µM, first compound 0.316 µM
[28] = second compound 0.1 µM, first compound 1 µM
[29] = second compound 0.1 µM, first compound 3.16 µM
[30] = second compound 0.1 µM, first compound 10 µM
[31] = second compound 0.316 µM, first compound 0.0316 µM
[32] = second compound 0.316 µM, first compound 0.1 µM
[33] = second compound 0.316 µM, first compound 0.316 µM
[34] = second compound 0.316 µM, first compound 1 µM
[35] = second compound 0.316 µM, first compound 3.16 µM
[36] = second compound 0.316 µM, first compound 10 µM
[37] = second compound 1 µM, first compound 0.0316 µM
[38] = second compound 1 µM, first compound 0.1 µM
[39] = second compound 1 µM, first compound 0.316 µM
[40] = second compound 1 µM, first compound 1 µM
[41] = second compound 1 µM, first compound 3.16 µM
[42] = second compound 1 µM, first compound 10 µM
[43] = curve of first compound, second compound 3.16 µM
[44] = curve of first compound, second compound 10 µM
[45] = second compound 3.16 µM, first compound 0.0316 µM
[46] = second compound 3.16 µM, first compound 0.1 µM
[47] = second compound 3.16 µM, first compound 0.316 µM
[48] = second compound 3.16 µM, first compound 1 µM
[49] = second compound 10 µM, first compound 0.0316 µM
[50] = second compound 10 µM, first compound 0.1 µM
[51] = second compound 10 µM, first compound 0.316 µM
[52] = second compound 10 µM, first compound 1 µM
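Note: agents incubated with spheroids for one week before read-out.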
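Throughout, for viability, T/C: 100% = DMSO vehicle-treated control wells.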

CC(C)NCC(C(=O)N1CCN(c2ncnc3c2C(C)CC3O)CC1)c1ccc(Cl)cc1 (centres undefined) + COc1c(OCCCN2CCOCC2)ccc2c3n(c(=NC(=O)c4cnc(N)nc4)nc12)CCN3
IC50 [1]: 1.13 µM | IC50 [2]: 1.92 µM | IC50 [3]: 0.969 µM | IC50 [4]: < 0.0316 µM | IC50 [5]: < 0.0316 µM | IC50 [6]: < 0.0316 µM | viability, T/C [7]: 108% | viability, T/C [8]: 62% | viability, T/C [9]: 71.9% | viability, T/C [10]: 57.4% | viability, T/C [11]: 41% | viability, T/C [12]: 18.8% | viability, T/C [13]: 79% | viability, T/C [14]: 73.3% | viability, T/C [15]: 67% | viability, T/C [16]: 62% | viability, T/C [17]: 42% | viability, T/C [18]: 15.5% | viability, T/C [19]: 63.3% | viability, T/C [20]: 64.3% | viability, T/C [21]: 55.6% | viability, T/C [22]: 51.3% | viability, T/C [23]: 23% | viability, T/C [24]: 12.6% | viability, T/C [25]: 30.3% | viability, T/C [26]: 30.1% | viability, T/C [27]: 35.3% | viability, T/C [28]: 24.7% | viability, T/C [29]: 15.5% | viability, T/C [30]: 6.96% | viability, T/C [31]: 11.1% | viability, T/C [32]: 10.8% | viability, T/C [33]: 11.4% | viability, T/C [34]: 10.5% | viability, T/C [35]: 6% | viability, T/C [36]: 3.59% | viability, T/C [37]: 5.39% | viability, T/C [38]: 4.74% | viability, T/C [39]: 4.07% | viability, T/C [40]: 4.44% | viability, T/C [41]: 2.79% | viability, T/C [42]: 1.58%

C#Cc1c(F)ccc2cc(O)cc(-c3ncc4c(N5CC6CCC(C5)N6)nc(OCC56CCCN5CC(F)C6)nc4c3F)c12 (centres undefined) + Cc1nc(NC(=O)N2CCCC2C(N)=O)sc1-c1ccnc(C(C)(C)C(F)(F)F)c1
IC50 [3]: > 10 µM | IC50 [4]: > 10 µM | IC50 [5]: > 10 µM | IC50 [6]: > 10 µM | IC50 [43]: < 0.0316 µM | IC50 [44]: < 0.0316 µM | viability, T/C [19]: 106% | viability, T/C [20]: 92.8% | viability, T/C [21]: 108% | viability, T/C [22]: 95% | viability, T/C [23]: 115% | viability, T/C [24]: 115% | viability, T/C [25]: 100% | viability, T/C [26]: 88.6% | viability, T/C [27]: 103% | viability, T/C [28]: 93.9% | viability, T/C [29]: 115% | viability, T/C [30]: 113% | viability, T/C [31]: 91.5% | viability, T/C [32]: 92.9% | viability, T/C [33]: 97.6% | viability, T/C [34]: 94.4% | viability, T/C [35]: 97.4% | viability, T/C [36]: 102% | viability, T/C [37]: 70.5% | viability, T/C [38]: 78.3% | viability, T/C [39]: 70.7% | viability, T/C [40]: 73.2% | viability, T/C [41]: 75% | viability, T/C [42]: 63.3% | viability, T/C [45]: 41.5% | viability, T/C [46]: 48.6% | viability, T/C [47]: 47.1% | viability, T/C [48]: 42.9% | viability, T/C (second compound 3.16 µM, first compound 3.16 µM): 40.6% | viability, T/C (second compound 3.16 µM, first compound 10 µM): 31.8% | viability, T/C [49]: 24.6% | viability, T/C [50]: 21.5% | viability, T/C [51]: 22.7% | viability, T/C [52]: 22.3% | viability, T/C (second compound 10 µM, first compound 3.16 µM): 19% | viability, T/C (second compound 10 µM, first compound 10 µM): 7.62%

CC1(C)CCC(CN2CCN(c3ccc(C(=O)NS(=O)(=O)c4ccc(NCC5CCOCC5)c([N+](=O)[O-])c4)c(Oc4cnc5[nH]ccc5c4)c3)CC2)=C(c2ccc(Cl)cc2)C1 + CC(Nc1ccc2c(c1)OCCn1cc(N3C(=O)OCC3C(F)F)nc1-2)C(N)=O
IC50 [1]: 4.62 µM | IC50 [2]: 4.48 µM | IC50 [3]: 4.75 µM | IC50 [4]: 4.65 µM | IC50 [5]: 1.93 µM | IC50 [6]: < 0.0316 µM | viability, T/C [7]: 96.5% | viability, T/C [8]: 88.1% | viability, T/C [9]: 116% | viability, T/C [10]: 89.8% | viability, T/C [11]: 74% | viability, T/C [12]: 1.86% | viability, T/C [13]: 85.4% | viability, T/C [14]: 77.2% | viability, T/C [15]: 95.1% | viability, T/C [16]: 96.9% | viability, T/C [17]: 71% | viability, T/C [18]: 1.5% | viability, T/C [19]: 86.2% | viability, T/C [20]: 82% | viability, T/C [21]: 98.2% | viability, T/C [22]: 86% | viability, T/C [23]: 75.8% | viability, T/C [24]: 2.64% | viability, T/C [25]: 68.3% | viability, T/C [26]: 70.7% | viability, T/C [27]: 84.6% | viability, T/C [28]: 72.1% | viability, T/C [29]: 74.5% | viability, T/C [30]: 2.65% | viability, T/C [31]: 55.8% | viability, T/C [32]: 55.2% | viability, T/C [33]: 53.7% | viability, T/C [34]: 54.4% | viability, T/C [35]: 46.8% | viability, T/C [36]: 1.04% | viability, T/C [37]: 36.3% | viability, T/C [38]: 35.2% | viability, T/C [39]: 36.8% | viability, T/C [40]: 34.2% | viability, T/C [41]: 35% | viability, T/C [42]: 1.55%

C[C@@H](NC(=O)c1ncnc(N)c1Cl)c1ncc(C(=O)Nc2cc(C(F)(F)F)c(Cl)cn2)s1
viability, T/C (compound 0.0316 µM): 107% [middle of 4 runs] | viability, T/C (compound 0.1 µM): 99.5% [middle of 4 runs] | viability, T/C (compound 0.316 µM): 118% [middle of 4 runs] | viability, T/C (compound 3.16 µM): 122% [middle of 4 runs] | viability, T/C (compound 10 µM): 120% [middle of 4 runs] | IC50 (curve of compound): > 10 µM

CCN1CCN(Cc2ccc(Nc3ncc(F)c(-c4cc(F)c5nc(C)n(C(C)C)c5c4)n3)nc2)CC1 + CC(Nc1ncnc2nc[nH]c12)c1cc2cccc(Cl)c2c(=O)n1-c1ccccc1
IC50 [3]: > 1 µM | IC50 [4]: > 1 µM | IC50 [5]: > 1 µM | IC50 [6]: 0.885 µM | IC50 [43]: 0.497 µM | IC50 [44]: 0.063 µM | viability, T/C (second compound 0.0316 µM, first compound 0.00316 µM): 113% | viability, T/C (second compound 0.0316 µM, first compound 0.01 µM): 93.7% | viability, T/C [19]: 108% | viability, T/C [20]: 88.6% | viability, T/C [21]: 76.5% | viability, T/C [22]: 62.2% | viability, T/C (second compound 0.1 µM, first compound 0.00316 µM): 108% | viability, T/C (second compound 0.1 µM, first compound 0.01 µM): 97.8% | viability, T/C [25]: 108% | viability, T/C [26]: 86.5% | viability, T/C [27]: 83.1% | viability, T/C [28]: 62% | viability, T/C (second compound 0.316 µM, first compound 0.00316 µM): 95.2% | viability, T/C (second compound 0.316 µM, first compound 0.01 µM): 112% | viability, T/C [31]: 109% | viability, T/C [32]: 94.4% | viability, T/C [33]: 68.2% | viability, T/C [34]: 53.7% | viability, T/C (second compound 1 µM, first compound 0.00316 µM): 97.5% | viability, T/C (second compound 1 µM, first compound 0.01 µM): 104% | viability, T/C [37]: 105% | viability, T/C [38]: 83.1% | viability, T/C [39]: 69% | viability, T/C [40]: 47.3% | viability, T/C (second compound 3.16 µM, first compound 0.00316 µM): 98.2% | viability, T/C (second compound 3.16 µM, first compound 0.01 µM): 96.6% | viability, T/C [45]: 89.8% | viability, T/C [46]: 75.7% | viability, T/C [47]: 51.5% | viability, T/C [48]: 46.2% | viability, T/C (second compound 10 µM, first compound 0.00316 µM): 81.9% | viability, T/C (second compound 10 µM, first compound 0.01 µM): 83.2% | viability, T/C [49]: 55.2% | viability, T/C [50]: 44.9% | viability, T/C [51]: 34.9% | viability, T/C [52]: 25.9%
